Columns and labels:
[1] = tested on: EMX, VEGF, and CLTA genomic loci; assay: High-throughput DNA sequencing of genome modifications, summary over on-target and off-target sites; assay type: cell-based, human
Experimental: We assayed these Cas9:sgRNA combinations in human cells for their ability to modify the three on-target loci as well as 11 known off-target genomic sites (Table 3)^4,5,10,13. Cells were treated with or without 1 μM 4-HT during transfection, and after 12 h the media was replaced with fresh media lacking 4-HT. […] Genomic DNA was isolated 60 h post-transfection and analyzed by high-throughput DNA sequencing
High-throughput DNA sequencing of genome modifications. HEK293-GFP stable cells were transfected with plasmids expressing Cas9 (500 ng) and sgRNA (125 ng) as described above. […] 4-HT (1 μM final), where appropriate, was added during transfection. 12 h after transfection, the media was replaced with full serum media without 4-HT. Genomic DNA was isolated and pooled from three biological replicates 60 h after transfection using a previously reported^11 protocol with a DNAdvance Kit (Agencourt). 150 ng or 200 ng of genomic DNA was used as a template to amplify by PCR the on-target and off-target genomic sites with flanking HTS primer pairs described previously^11. PCR products were purified using RapidTips (Diffinity Genomics) and quantified using the PicoGreen dsDNA Assay Kit (Invitrogen). Purified DNA was PCR amplified with primers containing sequencing adaptors, purified with the MinElute PCR Purification Kit (Qiagen) and AMPure XP PCR Purification (Agencourt). Samples were sequenced on a MiSeq high-throughput DNA sequencer (Illumina), and sequencing data was analyzed as described previously^4.
Sensitivity limit of off-target cleavage assays. We used paired end sequencing to identify indels caused by genomic on- and off-target cleavage. […] A 1 ng sample of human gDNA represents only ˜330 unique genomes, and thus only ˜330 unique copies of each genomic site are present. PCR amplification for each genomic target was performed on a total of 150 ng or 200 ng of input gDNA, which provides amplicons derived from at most 50,000 or 65,000 unique gDNA copies, respectively. Therefore, the high-throughput sequencing assay cannot detect rare genome modification events that occur at a frequency of less than approximately 1 in 50,000 (0.002%). When comparing between two conditions, such as wt Cas9 vs. intein-Cas9, this threshold becomes approximately 10 in 50,000 (0.02%) when using the Fisher exact test and a conservative multiple comparison correction (Bonferroni with 14 samples). See also Minoche, A. E., Dohm, J. C., & Himmelbauer, H. Evaluation of genomic high-throughput sequencing data generated on Illumina HiSeq and Genome Analyzer systems. Genome Biology 12, R112 (2011).

genomic EGFP locus = assay: Genomic EGFP disruption in HEK293-GFP stable cells (loss of GFP by flow cytometry); assay type: cell-based, human; conditions: for Loss of GFP expression / nuclease activity, in words: with or without 1 μM 4-HT, FIG. 3c
Experimental: HEK293-GFP stable cells were transfected with the Cas9 expression plasmid, a gRNA (targeting Emerald GFP; Guilinger et al., Nature Biotechnology (2014)), and iRFP670 (transfection control), using Lipofectamine 2000. Twelve hours after transfection, media, either containing 4-HT (1 μM) or without 4-HT, was added.
Five days after transfection, cells were trypsinized and analyzed on a flow cytometer. Cells lacking GFP indicated genome modification. Cas9 variants that induced minimal genome modification in the absence of 4-HT but induce significant genome modification in the presence of 4-HT were deemed small-molecule-regulated variants in this Example.
Additionally, a time course was performed in which incubation with 4-HT was limited to 2, 4, 8, 12 or 24 hours, after which point the media was replaced.
We genetically inserted the 4-HT-dependent intein at each of fifteen positions in Cas9 (Cys80, Ala127, Thr146, Ser219, Thr333, Thr519, Cys574, Thr622, Ser701, Ala728, Thr995, Ser1006, Ser1154, Ser1159, and Ser1274), chosen to distribute the location of the intein across the structural domains of Cas9^23 (FIG. 3b and Example 1). Because intein splicing leaves behind a single Cys residue, the intein was inserted in place of one Cas9 amino acid in each of the 15 candidate constructs. In addition to replacing natural Cys amino acids, we also favored replacing Ala, Ser, or Thr residues to minimize the likelihood that the resulting Cys point mutation resulting from protein splicing would disrupt Cas9 activity. The 15 intein-Cas9 candidates were expressed in HEK293-GFP cells together with a sgRNA that targets the genomic EGFP locus in these cells. Twelve hours post-transfection, cells were treated with or without 1 μM 4-HT. Five days post-transfection, cells were analyzed on a flow cytometer for loss of GFP expression from Cas9-mediated EGFP cleavage and subsequent non-homologous end joining.
Modification of genomic GFP. HEK293-GFP stable cells (GenTarget), which constitutively express Emerald GFP, served as the reporter cell line. Cells were maintained in “full serum media”: Dulbecco's Modified Eagle's Media plus GlutaMax (Life Technologies) with 10% (vol/vol) FBS and penicillin/streptomycin (1×, Amresco). 5×10^4 cells were plated on 48-well collagen-coated Biocoat plates (Becton Dickinson). 16-18 h after plating, cells were transfected with Lipofectamine 2000 (Life Technologies) according to the manufacturer's protocol. Briefly, 1.5 μL of Lipofectamine 2000 was used to transfect 650 ng of total plasmid: 500 ng Cas9 expression plasmid, 125 ng sgRNA expression plasmid, and 25 ng near-infrared iRFP670 expressing plasmid (Addgene plasmid 45457)^26. 12 h after transfection, the media was replaced with full serum media, with or without 4-HT (1 μM, Sigma-Aldrich T176). The media was replaced again 3-4 days after transfection. Five days after transfection, cells were trypsinized and resuspended in full serum media and analyzed on a C6 flow cytometer (Accuri) with a 488-nm laser excitation and 520-nm filter with a 20-nm band pass. Transfections and flow cytometry measurements were performed in triplicate.

[2] = +4-HT 2 hrs, then media replaced, Table 2
[3] = +4-HT 4 hrs, then media replaced, Table 2
[4] = +4-HT 8 hrs, then media replaced, Table 2
[5] = +4-HT 12 hrs, then media replaced, Table 2
[6] = +4-HT 24 hrs, then media replaced, Table 2
[7] = +4-HT (1 μM, added 12 h after transfection), five days after transfection, Table 1
[8] = −4-HT, five days after transfection, Table 1

Substance | Off-target modification frequency, average fold lower than wild-type Cas9 (80 ng) ([1]; EMX locus, all four off-target sites, +4-HT, similar on-target cleavage) [fold] | Activity compared to wild-type Cas9 ([1]; absence of 4-HT) | Activity compared to wild-type Cas9 ([1]; presence of 4-HT) | Cells without GFP (%) (genomic EGFP locus; [2]) | Cells without GFP (%) (genomic EGFP locus; [3]) | Cells without GFP (%) (genomic EGFP locus; [4]) | Cells without GFP (%) (genomic EGFP locus; [5]) | Cells without GFP (%) (genomic EGFP locus; [6]) | Cells without GFP (%) (genomic EGFP locus; [7]) | Loss of GFP expression / nuclease activity, in words (genomic EGFP locus; listed as C574) | Cells without GFP (%) (genomic EGFP locus; [8]) | Cells without GFP (%) (genomic EGFP locus; −4-HT, time course, Table 2) | Loss of GFP expression / nuclease activity, in words (genomic EGFP locus; listed as 5219)
intein(Cys574)-Cas9: Cas9 with 37R3-2 intein replacing Cys574 (SEQ ID NO: 33) | 4 | much less active | slightly less active than wild-type Cas9 | 14.57 | 13.11 | 16.91 | 16.10 | 14.52 | 21.44 | 4-HT-dependent loss of GFP expression and high activity in the presence of 4-HT and low activity in the absence of 4-HT | 5.74 | 2.91 | –
intein(Ser219)-Cas9: Cas9 with 37R3-2 intein replacing Ser219 (SEQ ID NO: 30) | – | much less active | slightly less active than wild-type Cas9 | 17.25 | 17.07 | 15.12 | 15.28 | 24.39 | 23.98 | – | 6.53 | 3.92 | 4-HT-dependent loss of GFP expression and high activity in the presence of 4-HT and low activity in the absence of 4-HT

From patent US11578343B2, “CAS9 proteins including ligand-dependent inteins” (President and Fellows of Harvard College, priority 2014, dated 2023)
